Laboratory results as given in ChEMBL document CHEMBL5528025, “Design, synthesis and biological evaluation of carbamate derivatives incorporating multifunctional carrier scaffolds as pseudo-irreversible cholinesterase inhibitors for the treatment of Alzheimer's disease” (Eur J Med Chem, 2024).
pIC50: −log10 of the molar value. Active and inactive are the calls of the source. The calls are words filed in the database; no cut-off is given here.

Assays:
[1] = target: Cholinesterase (Homo sapiens, UniProt P06276)
Description: Inhibition of human serum BuChE using butyrylthiocholine iodide as substrate incubated for 10 mins followed by substrate addition and measured after 10 mins by DTNB reagent based Ellman's method

[2] = target: Acetylcholinesterase (Homo sapiens, UniProt P22303)
Description: Inhibition of human erythrocyte AChE incubated for 10 mins

[3] = test system: PC-12; assay: (§1) Neuroprotective activity against H2O2-induced rat PC-12 cells assessed as protection against H2O2-induced apoptosis by measuring live cells at 10 uM pretreated for 1 hr followed by H2O2 addition and measured after 24 hrs by Annexin V-FITC/PI staining based flow cytometry analysis (reference value: 63.2%); type: functional; conditions: time 25 hrs
[4] = test system: PC-12; assay: as §1, with “late apoptotic” for “live”, “7.97%)” for “63.2%)”; type: functional; conditions: time 25 hrs
[5] = Cytotoxicity against rat PC-12 cells assessed as cell viability at 10 uM incubated for 24 hrs by CCK-8 assay relative to control; type: toxicity, cell-based; conditions: read-out: Activity
[6] = test system: BV-2; assay: Cytotoxicity against mouse BV-2 cells assessed as reduction in cell viability at 5 uM incubated for 24 hrs by CCK-8 assay; type: toxicity, cell-based; conditions: bv-2, 24 h
[7] = test system: PC-12; assay: Inhibition of H2O2 induced ROS production in rat PC-12 cells assessed as reduction in intracellular ROS level at 10 uM pretreated for 1 hr followed by H2O2 stimulation and measured after 24 hrs by confocal microscopic analysis; type: functional, cell-based; conditions: time 25.0 hrs
[8] = test system: BV-2; assay: Antineuroinflammatory activity in LPS-induced mouse BV-2 cells assessed as increase in IL-4 level at 1.25 to 5 uM incubated for 24 hrs by ELISA; type: functional, cell-based; conditions: dose 1.25-5 µM

Sequence of Cholinesterase (P06276 whole entry): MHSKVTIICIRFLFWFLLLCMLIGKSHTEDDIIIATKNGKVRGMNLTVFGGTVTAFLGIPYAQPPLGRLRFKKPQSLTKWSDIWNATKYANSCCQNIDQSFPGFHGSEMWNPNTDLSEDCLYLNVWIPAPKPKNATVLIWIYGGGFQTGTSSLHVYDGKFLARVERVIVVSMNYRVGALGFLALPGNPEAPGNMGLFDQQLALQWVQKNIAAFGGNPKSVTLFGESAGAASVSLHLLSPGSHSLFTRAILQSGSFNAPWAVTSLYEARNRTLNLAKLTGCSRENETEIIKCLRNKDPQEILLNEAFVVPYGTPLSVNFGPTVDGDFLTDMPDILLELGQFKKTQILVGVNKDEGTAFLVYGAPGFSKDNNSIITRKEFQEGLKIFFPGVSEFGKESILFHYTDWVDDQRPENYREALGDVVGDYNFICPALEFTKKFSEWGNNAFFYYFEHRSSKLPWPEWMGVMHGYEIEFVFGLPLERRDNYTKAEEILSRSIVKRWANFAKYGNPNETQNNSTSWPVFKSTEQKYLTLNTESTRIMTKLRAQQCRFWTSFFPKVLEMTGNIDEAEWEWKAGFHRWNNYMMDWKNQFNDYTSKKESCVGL
Sequence of Acetylcholinesterase (P22303 whole entry): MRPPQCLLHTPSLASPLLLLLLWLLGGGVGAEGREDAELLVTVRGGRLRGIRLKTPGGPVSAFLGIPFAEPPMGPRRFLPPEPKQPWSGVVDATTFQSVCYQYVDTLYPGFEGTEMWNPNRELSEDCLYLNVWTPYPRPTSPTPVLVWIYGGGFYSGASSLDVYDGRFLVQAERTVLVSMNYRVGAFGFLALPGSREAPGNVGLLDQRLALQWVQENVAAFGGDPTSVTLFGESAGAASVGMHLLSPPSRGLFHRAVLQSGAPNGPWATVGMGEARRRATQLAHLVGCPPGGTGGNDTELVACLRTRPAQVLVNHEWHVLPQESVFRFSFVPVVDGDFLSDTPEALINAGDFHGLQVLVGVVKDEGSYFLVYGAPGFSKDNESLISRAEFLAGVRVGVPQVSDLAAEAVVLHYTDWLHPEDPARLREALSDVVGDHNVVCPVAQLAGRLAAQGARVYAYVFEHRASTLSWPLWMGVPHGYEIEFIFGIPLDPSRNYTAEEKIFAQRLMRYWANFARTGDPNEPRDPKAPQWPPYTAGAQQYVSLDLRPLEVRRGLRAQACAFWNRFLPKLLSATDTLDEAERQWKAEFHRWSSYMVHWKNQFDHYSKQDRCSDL

| Structure (SMILES) | pIC50 [1] | pIC50 [2] | also measured |
| --- | --- | --- | --- |
| O=C(NCCCCCNc1c2c(nc3ccccc13)CCCC2)Oc1ccc2cc[nH]c2c1 | 7.63 | 6.38 | – |
| C[C@@H](c1cccc(OC(=O)NCCCCCCNc2c3c(nc4ccccc24)CCCC3)c1)N(C)C | 7.83 | 6.93 | – |
| O=C(NCCCCCNc1c2c(nc3cc(Br)ccc13)CCCC2)Oc1ccc2cc[nH]c2c1 | 7.37 | 6.50 | – |
| O=C(NCCCCCCNc1c2c(nc3cc(F)ccc13)CCCC2)Oc1ccc2cc[nH]c2c1 | 7.37 | 6.53 | – |
| Oc1ccc(/C=C/c2cc(O)cc(O)c2)cc1 [RESVERATROL] | – | – | Activity [3]: 87.3%; Activity [4]: 1.4% |
| O=C(NCCCNc1c2c(nc3ccccc13)CCCC2)Oc1ccc(-c2cc3cccnc3[nH]2)cc1 | 7.79 | 6.63 | viability at 24 h, 10 µM [5]: > 90% |
| O=C(NCCCCCCNc1c2c(nc3cc(Br)ccc13)CCCC2)Oc1ccc(-c2cc3cccnc3[nH]2)cc1 | 6.26 | 7.26 | – |
| C[C@@H](c1cccc(OC(=O)NCCCCNc2c3c(nc4ccccc24)CCCC3)c1)N(C)C | 7.36 | 6.53 | – |
| O=C(NCCCCNc1c2c(nc3ccccc13)CCCC2)Oc1ccc(-c2cc3cccnc3[nH]2)cc1 | 7.69 | 6.69 | viability at 24 h, 10 µM [5]: > 90%; Activity [6]: Non-Toxic; Activity [3]: 77.2%; Activity [4]: 2.92%; inhibition [7]: Active; Activity [8]: Active |
| O=C(NCCCCCNc1c2c(nc3cc(Cl)ccc13)CCCC2)Oc1ccc(-c2cc3cccnc3[nH]2)cc1 | 5.78 | 7.64 | – |
| C[C@@H](c1cccc(OC(=O)NCCCCCNc2c3c(nc4cc(Br)ccc24)CCCC3)c1)N(C)C | 7.66 | 7.32 | – |
| C[C@@H](c1cccc(OC(=O)NCCNc2c3c(nc4ccccc24)CCCC3)c1)N(C)C | < 5.00 | 6.60 | – |
| O=C(NCCCNc1c2c(nc3ccccc13)CCCC2)Oc1ccc2cc[nH]c2c1 | 8.14 | 6.26 | – |
| O=C(NCCCCCNc1c2c(nc3cc(Br)ccc13)CCCC2)Oc1ccc(-c2cc3cccnc3[nH]2)cc1 | 6.10 | 7.23 | – |
| O=C(NCCNc1c2c(nc3ccccc13)CCCC2)Oc1ccc(-c2cc3cccnc3[nH]2)cc1 | 7.28 | < 5.00 | – |
| C[C@@H](c1cccc(OC(=O)NCCCCCNc2c3c(nc4ccccc24)CCCC3)c1)N(C)C | 7.92 | 6.93 | – |
| C[C@@H](c1cccc(OC(=O)NCCCCCNc2c3c(nc4cc(Cl)ccc24)CCCC3)c1)N(C)C | 7.57 | 8.08 | – |
